Measured values taken from article PMC12689286, “Enhanced therapeutics of cabazitaxel via polycarboxylate conjugation: improved solubility, safety, and antitumor efficacy” (Frontiers in Immunology, 2025).

Columns and labels:
[1] = Lipid-aqueous (octanol/water) partition coefficient; type: physicochemical; conditions: room temperature
Protocol: CTXs were dissolved in octanol, and an equal volume of water was added, followed by shaken at 100 rpm for 24 h at room temperature. The upper octanol phase and lower water phase were separated by centrifugation. The supernatant was analyzed by HPLC (Bruker SolanX 70 FT-MS; Agilent 6540TOF) ([21]).

A549 = experiment: MTS cytotoxicity, A549; type: cell-based; conditions: Homo sapiens
Protocol: (§1) Human cancer cell lines were cultured in basic medium (10% fetal bovine serum (FBS)+1% double antibody solution) (Biological Industries) at 37°C in a 5% CO2 incubator. Effects of CTXs on cell proliferation and viability were measured by an MTS (Promega Corporation) assay. Absorbance values at 490 nm were measured using a microplate reader (Thermo Scientific, Varioskan Flash) ([22]).

Bel-7402 = experiment: MTS cytotoxicity, Bel-7402; type: cell-based; conditions: Homo sapiens; Bel-7402, MTS
Protocol: as §1

DU145 = experiment: MTS cytotoxicity, DU145; type: cell-based; conditions: Homo sapiens, DU-145
Protocol: as §1

Fadu = experiment: MTS cytotoxicity, Fadu; type: cell-based; conditions: Homo sapiens
Protocol: as §1

H358 = experiment: MTS cytotoxicity, H358; type: cell-based; conditions: Homo sapiens, NCI-H358
Protocol: as §1

H460 = experiment: MTS cytotoxicity, H460; type: cell-based; conditions: Homo sapiens, NCI-H460
Protocol: as §1

H520 = experiment: MTS cytotoxicity, H520; type: cell-based; conditions: Homo sapiens, NCI-H520
Protocol: as §1

HCT 116 = experiment: MTS cytotoxicity, HCT 116; type: cell-based; conditions: Homo sapiens; HCT 116, MTS
Protocol: as §1

HT-29 = experiment: MTS cytotoxicity, HT-29; type: cell-based; conditions: Homo sapiens; HT-29, MTS
Protocol: as §1

LN229 = experiment: MTS cytotoxicity, LN229; type: cell-based; conditions: Homo sapiens, LN-229
Protocol: as §1

MCF-7 = experiment: MTS cytotoxicity, MCF-7; type: cell-based; conditions: Homo sapiens, MCF7; MCF-7, MTS
Protocol: as §1

PC-3 = experiment: MTS cytotoxicity, PC-3; type: cell-based; conditions: Homo sapiens; PC-3, MTS
Protocol: as §1

SK-OV-3 = experiment: MTS cytotoxicity, SK-OV-3; type: cell-based; conditions: Homo sapiens; SK-OV-3, MTS
Protocol: as §1

L-02 = experiment: MTS cytotoxicity, L-02 (non-tumor); type: cell-based; conditions: Homo sapiens, L02, L-02 non-tumor cell line
Protocol: as §1

3T3 = experiment: MTS cytotoxicity, 3T3 (non-tumor); type: cell-based; conditions: Mus musculus, NIH3T3, 3T3 non-tumor cell line
DU145 cells = experiment: Cell cycle arrest (PI, flow cytometry); type: cell-based, human; conditions: 24 h
Protocol: Cells were incubated with drugs for 24 h. Fixed cells were incubated with RNase A and stained with propidium iodide (PI). DNA content was determined in a flow cytometer (BD FACS CaliburTM Flow Cytometer, USA) ([23]).

Hemolysis test = type: cell-based, SD rats; conditions: SD, rat, rat red blood cells, 2% (v/v) suspension, 37 °C, 1.5 h
Protocol: (§2) The hemolytic potential of CTX formulations was evaluated using rat red blood cells (RBCs). Briefly, whole blood was collected from the abdominal aorta of anesthetized SD rats into ACD anticoagulant (blood:ACD = 1:4, v/v). The blood was diluted with normal saline (4:5, v/v) and centrifuged at 450 g for 10 min. The RBC pellet was washed three times with normal saline until the supernatant was clear. The washed RBCs were then resuspended in normal saline to prepare a 2% (v/v) suspension.
(§3) For the assay, 500 μL of the 2% RBC suspension was mixed with an equal volume of serially diluted drugs or controls in 1.5 mL tubes. The controls included: Negative control (0% hemolysis): normal saline. Positive control (100% hemolysis): distilled water. Solvent control: the vehicle for unmodified CTX (2.5% Tween 80 + 2.5% anhydrous ethanol + 95% normal saline). The mixtures were incubated at 37 °C for 1.5 h and then centrifuged at 450 g for 5 min. Subsequently, 150 μL of the supernatant from each tube was transferred to a 96-well plate, and the absorbance at 545 nm (OD545) was measured using a microplate reader. The percentage of hemolysis was calculated using the following formula: Hemolysis (%) = [(ODsample - ODnegative control)/(ODpositive control - ODnegative control)] × 100.

[2] = system: rat red blood cells (RBCs); experiment: Hemolysis test; type: cell-based, SD rats; conditions: vs unmodified CTX
Protocol: as §2, §3

[3] = system: DU145 prostate cancer model; experiment: DU145 prostate cancer xenograft, tumor volume; type: in vivo, BALB/c nude mice; conditions: 3 μmol/kg tail vein, three times at 3-day intervals, control 500 ± 45 mm³
Protocol: (§4) All animal experiments were conducted in accordance with protocols approved by the Institutional Animal Care and Use Committee of Peking Union Medical College. Male BALB/c nude mice (6–8 weeks old) and female KM mice (6–8 weeks old) were purchased from Charles River Laboratories (Beijing, China) and maintained under specific pathogen-free conditions.
DU145 Prostate cancer model: DU145 cells (3×10^6 cells/mouse) were subcutaneously inoculated into the right flank of BALB/c nude mic. When tumors reached approximately 100 mm³, mice were randomly divided into four treatment groups (n=6/group): (a) Vehicle control; (b) CTX (3 μmol/kg); (c) CTX-TTHA (3 μmol/kg); (d) CTX-DTPA (3 μmol/kg). Treatments were administered via tail vein injection three times at 3-day intervals. Major organs were collected for histopathological examination after the final administration.

MCF-7 xenografts = experiment: MCF-7 breast cancer xenograft, tumor volume; type: in vivo, BALB/c nude mice; conditions: MCF-7 xenograft, 9.6 μmol/kg
Protocol: as §4
MCF-7 Breast Cancer Model: Female BALB/c nude mice bearing MCF-7 xenografts (2×10^6 cells/mouse) were randomized into treatment groups as described above, with an adjusted dose of 9.6 μmol/kg for all CTX formulations.

[4] = Systemic toxicity in H22 tumor-bearing mice (body weight, blood count); type: in vivo, KM mice; conditions: H22 mice, throughout treatment, across all dose groups (9.6 and 19.1 μmol/kg)
Protocol: H22 hepatoma model: Female KM mice were subcutaneously implanted with H22 cells (2×10^6 cells/mouse) and assigned to six groups: (a) Vehicle control; (b) CTX (9.6 μmol/kg in 5% glucose with 2.5% ethanol/2.5% Tween 80); (c) CTX-TTHA (9.6 μmol/kg in saline); (d) CTX-DTPA (9.6 μmol/kg in saline); (e) CTX-TTHA (19.1 μmol/kg in saline); (f) CTX-DTPA (19.1 μmol/kg in saline).
Treatments were administered every other day for four doses (three doses for CTX group due to weight loss >15%). Peripheral blood samples were collected for complete blood count analysis using an automated hematology analyzer.

[5] = Plasma pharmacokinetics (non-compartmental); conditions: SD rats
Protocol: (§5) Male and female SD rats (200–220 g) received intravenous injections of CTX or CTX-DTPA (6 μmol/kg). CTX was dissolved in 2.5% Tween 80/2.5% EtOH/saline, while CTX-DTPA used saline alone. Blood samples were collected at 5 min to 24 h post-dose. Tissues (heart, liver, spleen, lung, kidney, thymus) and excreta were collected at 15 min, 2 h, 4 h, and 12 h. Plasma and tissue samples were processed by liquid-liquid extraction with n-butanol and analyzed via LC-MS/MS (Agilent Poroshell 120 EC-C18 column; 0.05% formic acid/acetonitrile gradient). Pharmacokinetic parameters were calculated using DAS 2.0 via non-compartmental analysis.

Tissue distribution = conditions: CTX metabolite after CTX-DTPA 6 μmol/kg iv, SD rats
Protocol: as §5

[6] = CTX-DTPA 6 μmol/kg iv, plasma, CTX metabolite derived from CTX-DTPA

SMILES: COC1C(=O)C2(C)C(OC)CC3OCC3(OC(C)=O)C2C(OC(=O)c2ccccc2)C2(O)CC(OC(=O)C(OC(=O)CN(CCN(CCN(CCN(CC(=O)O)CC(=O)O)CC(=O)O)CC(=O)O)CC(=O)O)C(NC(=O)OC(C)(C)C)c3ccccc3)C(C)=C1C2(C)C (stereo not shown) [CTX-TTHA]
- logP at 24 h [1]: -1.37 ± 0.38
- IC50 (A549): 3.3 ± 1.6 nM
- IC50 (Bel-7402): 2.4 ± 0.4 nM
- IC50 (DU145): 4.1 ± 2.2 nM
- IC50 (Fadu): 2.3 ± 0.9 nM
- IC50 (H358): 1.6 ± 0.4 nM
- IC50 (H460): 1.9 ± 0.7 nM
- IC50 (H520): 2.1 ± 0.6 nM
- IC50 (HCT 116): 2.1 ± 0.9 nM
- IC50 (HT-29): 8.4 ± 3.8 nM
- IC50 (LN229): 7.6 ± 3.1 nM
- IC50 (MCF-7): 5.5 ± 2.3 nM
- IC50 (PC-3): 7.4 ± 2.8 nM
- IC50 (SK-OV-3): 3.2 ± 0.8 nM
- IC50 (L-02): 6.8 ± 0.4 nM
- IC50 (3T3): 8 ± 3.3 nM
- cells arrested in G2/M (DU145 cells; DU145, 1 nM): 15.1 ± 0.1%
- cells arrested in G2/M (DU145 cells; DU145, 25 nM): 69.9 ± 12.6%
- hemolysis at 1.5 h, 300 nmol/mL (Hemolysis test; 300 nmol/mL (maximum tested), read-out: hemolysis rate): 28.3 ± 13.9%
- hemolysis at 1.5 h (Hemolysis test; concentrations up to 150 nmol/mL): < 2%
- improvement in hemocompatibility over unmodified CTX [2]: 64 fold
- final tumor volume [3]: 270 ± 28 mm³
- tumor volume at study endpoint (MCF-7 xenografts): 190 ± 22 mm³
- WBC counts [4]: 3.50-5.60 ×10^9/L

SMILES: CO[C@H]1C(=O)[C@]2(C)[C@@H](OC)C[C@H]3OC[C@@]3(OC(C)=O)[C@H]2[C@H](OC(=O)c2ccccc2)[C@]2(O)C[C@H](OC(=O)[C@H](O)[C@@H](NC(=O)OC(C)(C)C)c3ccccc3)C(C)=C1C2(C)C [CTX/CTX-DTPA]
- Cmax relative to CTX ([5]; 6 μmol/kg iv, CTX metabolite from CTX-DTPA vs CTX group, greater): 2.2 fold
- AUC(0-t) [5, 6]: **** 5157.71 ± 1650.87 μg/L*h
- CL [5, 6]: 25.2 ± 6.83 mL/min/kg
- Cmax [5, 6]: * 6311.67 ± 1217.79 μg/L
- MRT0-t [5, 6]: 0.72 ± 0.02 H
- Vd [5, 6]: * 6.04 ± 1.63 L/kg
- t1/2 [5, 6]: **** 2.77 ± 0.00 H
- tissue concentration (Tissue distribution; heart, 15 min): * 2.38 ± 0.46 μg/kg
- tissue concentration (Tissue distribution; heart, 2 h): *** 2.27 ± 0.70 μg/kg
- tissue concentration (Tissue distribution; heart, 4 h): *** 1.26 ± 0.20 μg/kg
- tissue concentration (Tissue distribution; heart, 12 h): ** 0.41 ± 0.29 μg/kg
- tissue concentration (Tissue distribution; kidney, 15 min): **** 53.38 ± 7.21 μg/kg
- tissue concentration (Tissue distribution; kidney, 2 h): ** 63.87 ± 43.92 μg/kg
- tissue concentration (Tissue distribution; kidney, 4 h): *** 8.74 ± 0.10 μg/kg
- tissue concentration (Tissue distribution; kidney, 12 h): **** 3.14 ± 1.66 μg/kg
- tissue concentration (Tissue distribution; liver, 15 min): *** 17.88 ± 1.12 μg/kg
- tissue concentration (Tissue distribution; liver, 2 h): ** 10.31 ± 7.28 μg/kg
- tissue concentration (Tissue distribution; liver, 4 h): ** 4.62 ± 3.48 μg/kg
- tissue concentration (Tissue distribution; liver, 12 h): * 1.91 ± 1.12 μg/kg
- tissue concentration (Tissue distribution; lung, 15 min): *** 12.95 ± 5.49 μg/kg
- tissue concentration (Tissue distribution; lung, 2 h): **** 9.66 ± 5.84 μg/kg
- tissue concentration (Tissue distribution; lung, 4 h): **** 2.44 ± 0.01 μg/kg
- tissue concentration (Tissue distribution; lung, 12 h): * 1.78 ± 0.82 μg/kg
- tissue concentration (Tissue distribution; spleen, 15 min): ** 5.49 ± 0.53 μg/kg
- tissue concentration (Tissue distribution; spleen, 2 h): **** 8.23 ± 4.20 μg/kg
- tissue concentration (Tissue distribution; spleen, 4 h): ** 2.61 ± 0.42 μg/kg
- tissue concentration (Tissue distribution; spleen, 12 h): ** 1.43 ± 0.96 μg/kg
- tissue concentration (Tissue distribution; thymus, 15 min): ** 1.49 ± 0.02 μg/kg
- tissue concentration (Tissue distribution; thymus, 2 h): * 4.37 ± 5.02 μg/kg
- tissue concentration (Tissue distribution; thymus, 4 h): * 0.79 ± 0.28 μg/kg
- tissue concentration (Tissue distribution; thymus, 12 h): **** 0.80 ± 0.42 μg/kg
